Assay results: US9522151B2, “Dosing regimen for Janus Kinase (JAK) inhibitors” (priority 2012, dated 2016)
pIC50: −log10 of the molar value. Several values for one entry are separate records, joined by “and”; a condition that tells them apart may be missing. Equal entries are not always repeated. Where two headings read alike, the source gives them in different places.

What was measured:
[1] = test system: dogs with moderate to severe itching (pruritus); experiment: Pruritus Study A (placebo controlled); type: in vivo, dog
Text: (§1) Investigators attributed pruritus to one or more of the following: allergic dermatitis, atopic dermatitis, food allergy, contact allergy, flea allergy, sarcoptic mange. Dogs were six months of age or older, weighed a minimum of 3 kg and were physically healthy apart from their pruritic condition. Dogs were flea-free, and appropriate preventatives and treatments were used throughout the studies. The studies were designed as follows in Table 2 and Table 3.

[2] = test system: dogs with chronic non-seasonal atopic dermatitis; experiment: Atopic Dermatitis Dose Selection Study; type: in vivo, dog; conditions: oral
Text: (§2) Minimum CADESI scores were assigned by a dermatologist or veterinarian (CADESI-01 score of 25 or CADESI-3 score of 60). Dogs were either 1 year of age or 6 months of age or older and weighed a minimum of 3 kg and were physically healthy apart from their atopic disease. The dogs had at least a 1 year or 6 month documented history of chronic non-seasonal atopic dermatitis. The dogs were flea free and appropriate preventatives and treatments were used throughout the study.

physchem = conditions: pH 3.8
[3] = test system: cytokines that are exclusively dependent on JAK2 function (EPO, GM-CSF); experiment: Inhibition of cytokines exclusively dependent on JAK2; type: cell-based; conditions: ratio of IC50's
[4] = test system: client owned dogs with a history of chronic atopic dermatitis; experiment: Study in client owned dogs with chronic atopic dermatitis (Table 1); type: in vivo, dog; conditions: 0.19-0.39 mg/kg BID oral for 28 days; Day 1, 14 and 28
Method: A study was conducted in client owned dogs. Fifty-six dogs, greater than 1 year of age, weighing 2-50 kg, with a history of chronic atopic dermatitis were enrolled at three veterinary schools. The study design is illustrated in the following Table 1: […]

[5] = test system: client-owned dogs with chronic non-seasonal atopic dermatitis; type: in vivo; conditions: 0.4-0.6 mg/kg BID oral
Text: as §2
In these studies, animals were administered from 0.4-0.6 mg/kg body weight of a JAK inhibitor BID for up to 112 days.

laboratory dogs = experiment: High dose BID safety study in 6 month old laboratory dogs; type: in vivo, dog
Method: A high dose (3 mg/kg BID) was given to 6 month old laboratory dogs.

[6] = test system: JAK-1 dependent cytokines (e.g. IL-2, IL-4, IL-6, IL-13, and IL-31); experiment: Inhibition of JAK-1 dependent cytokines; type: cell-based
in vitro = conditions: human, Caco-2
Text: The in vitro permeability of Compound 1 was experimentally determined in a Caco-2 cell monolayer study. […] The dog gastric pH has been reported to range from 1.08 to 2.0 (Sagawa, Li et al. 2009; Mahar, Portelli et al. 2012).

[7] = dog, in vivo
Method: All doses are expressed in terms of mg/kg of free base. Serial blood samples for determination of pharmacokinetics were collected following Compound 1 administration. Blood samples at 0, 1, 4, 8, and 12 hours post dose were collected via jugular venipuncture into K2EDTA tubes and placed on ice until centrifuged. Harvested plasma was stored at approximately −20° C. until analysis.
Thirty-two beagle dogs (16 female, 16 male) were allocated to four treatment groups. Dogs in Treatment 1 received placebo capsule (0 mg/kg) orally. […] All dogs received a twice daily doses 0, 0.6, 1.8, and 3.0 mg/kg for weeks 1 through 6 and a single daily doses of 0, 0.6, 1.8, and 3.0 mg/kg for weeks 7 through 26. On pharmacokinetic sample collection days, dogs were fasted the previous night and fed four hours post dose administration. To calculate AUC0-24 for study days 53 and 168, steady-state was assumed and the 24 hour concentration was assumed to be equal to the 0 hour concentration, and used for the 0 hour concentration. As the actual doses of Compound 1 varied from the group target doses, the pharmacokinetic variables AUC0-τ, (AUC of the dosing interval), Cmax, and Cτ (trough concentration) were all normalized to the group target dose.

[8] = Other pharmacokinetic studies in dogs (IV and PO); conditions: for bioavailability: po
[9] = test system: dogs with moderate to severe itching (pruritus); experiment: Pruritus Study B (prednisolone controlled); type: in vivo, dog; conditions: day 14; oral BID for 14 days (prednisolone 0.25-0.5 mg/kg, compound 1 0.4-0.6 mg/kg); time zero about 75 mm
Text: as §1

[10] = dog, in vivo; remark: listed apart in the source
[11] = pH 5.5
laboratory-bred dogs = test system: laboratory-bred dogs
Method: A target animal safety program (8 studies) was conducted. 131 laboratory-bred dogs were exposed to N-methyl-1-{trans-4-[methyl(7H-pyrrolo[2,3-d]pyrimidin-4-yl)amino]cyclohexyl}methanesulfonamide maleate (i.e. N-methyl-1-{trans-4-[methyl(7H-pyrrolo[2,3-d]pyrimidin-4-yl)amino]cyclohexyl}methanesulfonamide maleic acid salt maleic acid salt). Doses ranged from 0.5 mg/kg/day (0.25 mg/kg BID) to 18 mg/kg/day (9 mg/kg BID). Duration of exposure ranged from 10 days to 6 months. Recovery periods were incorporated into two studies. A series of early studies were designed to ensure the safety of client-owned dogs in the field safety and efficacy studies.
In a “margin of safety” study, the following treatments were given: […]

IL-12 and IL-23 = experiment: Inhibition of cytokines that utilize JAK2/TYK2 and not JAK1; type: cell-based
[12] = test system: the IL-10 family, the IL-12 family (that share the p40 subunit), or the IL-3 family; experiment: Inhibition of IL-10, IL-12 and IL-3 family cytokines; type: cell-based
[13] = test system: cytokine receptors that share the gp130 subunit (e.g. IL-6) as well as IL-13; experiment: Inhibition of gp130 subunit cytokine receptors and IL-13; type: cell-based
[14] = test system: cytokine receptors that share the common gamma chain (e.g. IL-2R, IL-4R); experiment: Inhibition of cytokine function, common gamma chain receptors; type: cell-based; conditions: read-out: IC50's of representative family members

CNS(=O)(=O)C[C@H]1CC[C@H](N(C)c2ncnc3[nH]ccc23)CC1.O=C(O)/C=C\C(=O)O [Compound 1, N-methyl-1-{trans-4-[methyl(7H-pyrrolo[2,3-d]pyrimidin-4-yl)amino]cyclohexyl}methanesulfonamide maleate]
owner VAS scores by day compared to placebo (T01) ([1]; 0.4-0.6 mg/kg BID oral for 7 days): lower each day starting on day 1
LS mean owner VAS score ([1]; day 7, 0.4-0.6 mg/kg BID oral, time zero about 75 mm, placebo about 55 mm): about 25 mm
Investigator CADESI score over 112 days, order of treatment groups from highest to lowest [2]: T01 (placebo), T04 (0.2-0.3 mg/kg SID compound 1), T03 (0.4-0.6 mg/kg SID compound 1), and T02 (0.4-0.6 mg/kg BID for 14 days followed by 0.4-0.6 mg/kg SID thereafter)
solubility (physchem): 10.4 mg/mL
fold less potent than the JAK1-dependent cytokines (IL-2, 4, 6, 13, and 31) [3]: 4-17 fold
reduction in owner assessed VAS pruritus scores compared with placebo [4]: significantly (p≦0.07) different
efficacy for the control of atopic dermatitis including pruritus [5]: excellent efficacy
effects observed (laboratory dogs; 0.6 mg/kg BID group): few effects
dogs with clinical signs of integument (demodex) (laboratory dogs; 3 mg/kg BID, 6 month old laboratory dogs): 7/8
IC50 [6]: < 249 nM and < 0.084 µg/mL
Papp (in vitro): 40.4 ×10⁻⁶ cm/s
increase in mean AUC0-12 from Day 0 to Day 21 ([7]; both, beagle, po): 40%
male/female differences in pharmacokinetic parameters [7]: there did not appear to be any systematic male/female differences
increase in AUC0-12 and Cmax with dose ([7]; po, 3 mg/kg): dose proportional from 0.6 to 3.0 mg/kg
calculated fraction absorbed ([8]; based on bioavailability 85%, clearance 4 mL/min/kg, blood flow 40 mL/min/kg): greater than 0.9
half-life ([8]; dog, plasma): 4 h
clearance ([8]; dog, plasma, intravenous): 4 mL/min/kg
bioavailability ([8]; dog, plasma, absolute oral bioavailability, mean range, dogs): 79 to 89%
bioavailability ([8]; dog, plasma, bioavailability, value used to calculate fraction absorbed): 85%
volume of distribution ([8]; dogs): moderate volume of distribution
time of mean maximum plasma concentrations post dose ([8]; oral administration, dogs): approximately 1 hour
LS mean owner VAS score [9]: about 18 mm
impact of breed on pharmacokinetic profile [10]: breed does not impact the pharmacokinetic profile
solubility [11]: practically insoluble
significant decreases in red blood cell parameters outside normal laboratory reference ranges (laboratory-bred dogs; 0.6 mg/kg dose): not detected
deaths or other serious adverse events (laboratory-bred dogs; 0.6, 1.8 or 3.0 mg/kg oral, BID weeks 1-6 then SID weeks 7-26): no observed deaths or other serious adverse events
pIC50 (IL-12 and IL-23): < 5.52
inhibition of cytokines [12]: it does not appear that compound 1 inhibits
inhibition of cytokine receptor function [13]: inhibits the function
IC50 [14]: 63 nM to 249 nM and 0.021 µg/mL to 0.084 µg/mL

C[C@]12C=CC(=O)C=C1CC[C@@H]1[C@@H]2[C@@H](O)C[C@@]2(C)[C@H]1CC[C@]2(O)C(=O)CO [prednisolone, Prednisolone, reference compound]
LS mean owner VAS score [9]: about 10 mm
